Experimental data as given in patent publication US20150010644A1, “OXYGENATION OF THE MUCOSAL BARRIER BY ENTERAL ARTIFICIAL BLOOD TO PREVENT HYPOXIC BREAKDOWN OF THE MUCOSAL BARRIER” (THE REGENTS OF THE UNIVERSITY OF CALIFORNIA, priority 2011, published 2015).
Entries after “also recorded” stand apart in the source; their conditions may differ.

Columns and labels:
mucin2 [1] = experiment: Mucin2 fluorescent staining of jejunal sections, rat SAO model; format: in vivo; details: SAO 30 min, lumenal injection 30 min prior; for villi injury / villus structure: micrographs
Description: (§1) Male Wistar rats (250-300 g, Harlan Sprague Dawley Inc, Indianapolis, Ind.) were randomly assigned to each group (n=4 per group). Rats were kept on solid food restriction for 12 hours prior to surgery with water ad libitum. […] Sham groups were treated the same with the arteries separated but not ligated.
(§2) Perfluorocarbon groups: Perfluorodecalin (PFC) (Sigma-Aldrich, St Louis, Mo.) with oxygen, previously bubbled into the solution for 10 min, was injected into the lumen of the intestine 30 min prior SHAM or SAO surgery (SHAM+PFC+O2, SAO+PFC+O2). PFC without oxygen bubbled into the solution was injected 30 min prior SHAM or SAO surgery (SHAM+PFC, SAO+PFC).
(§3) ATP-MgCl2 groups: ATP-MgCl2 (Sigma-Aldrich), 25 mg/kg BW was injected in the lumen of the intestine 30 min prior to SHAM or SAO surgery (SHAM+ATP, SAO+ATP).
(§4) pH groups: Acidic saline (pH 5.5) injected in the lumen of the intestine 30 min prior SHAM surgery or HEPES buffer (20 mM) injected into the lumen of the intestine 30 min prior to SHAM or SAO surgery.
(§5) Free radicals groups: The hydroxyl radical scavenger, dimethylthiourea (DMTU, Sigma-Aldrich; 2.0 mg/g BW) was injected in the lumen of the intestine 30 min prior to SAO (SAO+DMTU).
(§6) Tissue cryosections: After euthanasia, jejunal sections (˜1 cm in length) were excised without removal of lumenal contents and suspended in Tissue-Tek O.C.T. Compound (Sakura Finetek, Torrance, Calif.), snap frozen in isopentane/liquid nitrogen, and stored at −80° C. for analysis. Cryosections (5 μm thickness) along the longitudinal axis of the villi were used throughout all experiments. Cryosections were fixed in 10% formalin solution and processed in a non-blinded fashion.
(§7) Mucin and lectin staining: The simultaneous visualization of lectins and mucin was carried out using Lectin GS-II from Griffonia simplicifolia, Alexa Fluor® 594 Conjugate (EnzChek®, Invitrogen, Carlsbad, Calif.) and specific antibody for mucin2 with FITC secondary antibody 1:10000 (Santa Cruz Biotechnology) and nuclei counterstaining with DAPI. Sections were observed on an inverted microscope (20× objective) using the appropriate fluorescent filters.

[2] = system: ATP concentration in intestine homogenates; experiment: ATP assay in intestine homogenates, rat SAO model; format: in vivo; details: SAO 30 min; lumenal injection 30 min prior
Description: as §1, §2, §3, §4, §5
ATP assay: ATP concentrations in intestine homogenates were measured using ATP fluorometirc assay kit (BioVision, Mountain View, Calif.) according to manufacturer's protocol. Briefly jejuna sections were homogenized with perchloric acid (BioVision), centrifuged at 15,000×G for 5 min at 4° C. Samples were mixed with ATP reaction mix, incubated for 30 min protected from light and the fluorescence was measured with 535/587 (Ex/Em).

[3] = system: trypsin activity in the intestinal wall; experiment: In-situ zymography for trypsin activity in jejunal cryosections, rat splanchnic arterial occlusion (SAO) model; format: in vivo; details: lumenal injection 30 min prior
Description: as §1
Control groups: Animals with saline injection into the lumen of the intestine, 3 ml/100 g Body Weight (BW), 30 min prior to SHAM or SAO surgery.
as §2
ATP-MgCl2 groups: ATP-MgCl2 (Sigma-Aldrich), 25 mg/kg BW was injected in the lumen of the intestine 30 min prior to SHAM or SAO surgery (SHAM+ATP, SAO+ATP). […]
After 30 min SAO or sham surgery, the animals were euthanized (Beuthanasia®; 0.22 ml/kg BW, IV).
as §6
In-situ tissue zymography: In-situ zymography for trypsin activity in cryosections was assessed by measurement of fluorescence resulting from the proteolytic cleavage of the substrate (1 mM, Na-benzoyl-L-arginine-7-amido-methylcoumarin hydrochloride; Sigma-Aldrich) as described elsewhere with propidium iodine counterstaining (Sigma-Aldrich) (9). Slides were observed under an inverted microscope (20× and 60× objectives).

mucin2 [4] = experiment: Western blot for mucin2 of intestine homogenates, rat SAO model; format: in vivo; details: SAO 30 min, lumenal injection 30 min prior
Description: as §1, §2, §3, §4, §5
(§8) Homogenates of intestine and lumenal contents: Jejunal segments were excised without removal of lumenal contents. For enzyme activity measurements, segments of intestine were homogenized with CelLytic™ (Sigma-Aldrich) without addition of protease inhibitors. For Western blot assays the intestine segments were homogenized as above in the presence of protease inhibitors (5 mM EDTA, 5 mM N-Ethylmaleimide, 25 mM iodoacetamide, 5 mM benzamidine, 300 mM acarbose, 5 mM 6-aminocaproic acid, 1 mM protease inhibitor cocktail, (Sigma-Aldrich). In separate experiments the small intestine of sham animals was excised, and the lumenal contents were flushed with 20 ml saline. Homogenates or lumenal contents were centrifuged (16,000 g for 15 min at 4° C.), the supernatant was collected and protein concentration was assessed with the bicinchoninic acid protein assay (Thermo Scientific).
(§9) Western blot: 20 μg of tissue homogenate were separated by SDS-PAGE. Membranes were incubated with primary antibodies as follows: mucin2, mucin13 and trypsin 1:1000 (Santa Cruz Biotechnology), pancreatic amylase 1:1000 (GeneTex, San Antonio, Tex.), intra- and extra-cellular domains of E-cadherin and TLR4 1:1000 (Abcam), intracellular domain of TLR4 1:1000 (Invitrogen). Secondary antibodies were diluted 1:20000 (Santa Cruz Biotechnology) and detected with Super Signal West Pico (Thermo Scientific). The exposed x-ray films were scanned and label intensity was measured using digital gel analysis (NIH ImageJ software).

mucin13 = experiment: Western blot for mucin13 of intestine homogenates, rat SAO model; format: in vivo; details: SAO 30 min, lumenal injection 30 min prior
Description: as §1, §2, §3, §4, §5, §8, §9

[5] = system: lectin staining (carbohydrate portion of mucin); experiment: Lectin fluorescent staining (carbohydrate portion of mucin) of jejunal sections, rat SAO model; format: in vivo; details: SAO 30 min; lumenal injection 30 min prior
Description: as §1, §2, §3, §4, §5, §6, §7

intestinal villi hypoxia = experiment: Hypoxia staining (pimonidazole, Hypoxyprobe-1) of intestinal villi, rat SAO model; format: in vivo; details: SAO 30 min; lumenal injection 30 min prior
Description: as §1, §2, §3, §4, §5
Hypoxia staining: In separate experiments tissue hypoxia was detected with Hypoxyprobe™-1 Kit (Natural Pharmacia International, Burlington, Mass., USA). This method utilizes a small molecular marker, pimonidazole, which after intravenous injection forms adducts with thiol containing proteins only in oxygen-starved cells. After general anesthesia as described above, pimonidazole-HCl (6 mg/100 g) was injected intravenously 30 min before SAO or SHAM; at 30 min the animal was euthanized and the jejuna section removed, embedded in O.C.T and frozen in liquid nitrogen. Then cryosections were immunostained using a rabbit antibody that binds to protein adducts of pimonidazole in hypoxic cells.

ischemic intestine = experiment: Rat model with severe ischemic intestine (30 min ischemia), enteral oxygen carrier; format: in vivo; details: 7 ml for 230 g rat, saturated for 10 min in oxygen
Description: The case was illustrated in a model with 30 min ischemia with Perfluorodecalin solution (7 ml for 230 g rat) saturated for 10 min in oxygen.

[6] = system: MDA equivalents (TBARS) in jejunal homogenates; experiment: Thiobarbituric Acid Reactive Substances (TBARS) assay, rat SAO model; format: in vivo; details: SAO 30 min; lumenal injection 30 min prior
Description: as §1, §2, §3
pH groups: Acidic saline (pH 5.5) injected in the lumen of the intestine 30 min prior SHAM surgery or HEPES buffer (20 mM) injected into the lumen of the intestine 30 min prior to SHAM or SAO surgery. […]
TBARS assay: Thiobarbituric Acid Reactive Substances (TBARS) was measured using the TBARS assay kit (Zeptometrix, Buffalo, N.Y.) according to manufacturer's protocol. […] Samples were centrifuged at 3000 rpm for 15 min and the supernatant were read at 530/550 (Ex/Em).

E-cadherin = experiment: Western blot of intra- and extracellular domains of E-cadherin in IEC-18 cells; format: cell-based; details: trypsin 50 μM
Description: (§10) To investigate whether mucin provides a barrier against trypsin transport, IEC-18 cells (on Transwell plates) were coated with and without a mucin film (400 μm, 10%, porcine stomach). FITC-dextrans (20 kDa, 5 mg/ml) with and without trypsin (50 μM) was added to the apical side and the rate of FITC accumulation on the basal side over 60 min was measured. To determine if trypsin cleaves the adherent junctions of the epithelium, it was measured by Western blot the levels of intra- and extracellular domains of E-cadherin. […] Thus, mucin protects against trypsin-mediated increases in intestinal epithelial permeability.

IEC-18 cells = experiment: FITC-dextran permeability of IEC-18 cells on Transwell plates with and without mucin film; format: cell-based; details: trypsin 50 μM
Description: as §10

[7] = listed as deoxygenated perfluorcarbon

Compound	mucin2 staining levels (mucin2 [1])	villi injury / villus structure (mucin2 [1])	ATP concentration in intestinal tissue homogenates [2]	trypsin activity in the intestinal wall ([3]; SAO 30 min)	mucin2 protein levels (relative density, Western blot) (mucin2 [4])	mucin13 protein levels / 17 kDa fragment (Western blot) (mucin13)	lectin staining levels [5]	hypoxia staining levels (intestinal villi hypoxia)	trypsin activity in the intestinal wall ([3]; SHAM surgery)	mucin2 protein levels (relative density, Western blot) (mucin2 [4]; [7])	mucin13 protein levels / 17 kDa fragment (Western blot) (mucin13; [7])	trypsin activity in the intestinal wall ([3]; SAO 30 min, listed as oxygenated perfluorcarbon)	intestinal damage (ischemic intestine)	levels of MDA equivalents (TBARS) [6]	E-cadherin cleavage (E-cadherin; mucin film present)	decrease of epithelial permeability (FITC-dextran 20 kDa accumulation on basal side over 60 min) (IEC-18 cells; mucin film present (400 μm, 10%, porcine stomach), p<0.05) [%]	E-cadherin cleavage (E-cadherin; without a mucin film)	increase of epithelial permeability (FITC-dextran 20 kDa accumulation on basal side over 60 min) (IEC-18 cells; without a mucin film) [%]
CNC(=S)NC [DMTU, dimethylthiourea, reference compound]	no significant change in mucin2 staining levels	undetectable villi injury	lower than SHAM and higher than SAO but it was not statistically significant	undetectable levels of trypsin activity; also recorded: reduced trypsin activity in the intestinal wall	reduced levels of mucin2; also recorded: reduction in mucin2 protein levels	no appearance of the lower molecular weight band at 17 kDA; also recorded: preservation of mucin13 protein levels	lower levels of lectin labeling as compared to SHAM; also recorded: decrease in lectin staining	significantly low levels of hypoxia staining as compared to SAO	–	–	–	–	–	–	–	–	–	–
O=S(=O)(O)CCN1CCN(CCO)CC1 [HEPES buffer, HEPES]	significantly lower as compared to SHAM, and they were also significantly higher than SAO	did not have signs of villi injury	significantly higher than SAO and similar to sham groups	Low levels of trypsin activity	no significant decrease in mucin2 molecule	no degradation of mucin13	lower as compared to SHAM	significantly higher than the SHAM and SHAM-HEPES groups as well as the SAO group	minimal trypsin activity	–	–	–	–	–	–	–	–	–
FC1(F)C(F)(F)C(F)(F)C2(F)C(F)(F)C(F)(F)C(F)(F)C(F)(F)C2(F)C1(F)F (stereo not shown) [deoxygenated perfluorocarbon, Perfluorodecalin, reference compound]	significantly lower	–	significantly decreased	High levels of trypsin activity	–	–	significantly lower	highest levels of hypoxia staining	minimal trypsin activity	reduced in the SAO group (SAO+PFC) as compared to sham (SHAM+PFC)	presented the lower molecular weight fragments at 17 kDa	–	–	–	–	–	–	–
FC1(F)C(F)(F)C(F)(F)C2(F)C(F)(F)C(F)(F)C(F)(F)C(F)(F)C2(F)C1(F)F (stereo not shown) [oxygenated perfluorocarbon, Perfluorodecalin]	significantly higher as compared to SAO and SAO-PFC	preserve the villus structure	no reduction of ATP concentration	prevents the appearance of trypsin activity inside the intestinal wall	mucin2 density levels similar to the sham; also recorded: reduces mucin2 and mucin13 degradation	complete disappearance or very faint levels of the 17 kDa band; also recorded: reduces mucin2 and mucin13 degradation	significantly higher as compared to SAO and SAO-PFC	–	minimal trypsin activity	–	–	undetectable levels of trypsin activity	minimize intestinal damage	significantly lower as compared to SAO or SAO+PFC	–	–	–	–
mucin	–	–	–	–	–	–	–	–	–	–	–	–	–	–	cleavage is reduced	30	–	–
trypsin	–	–	–	–	–	–	–	–	–	–	–	–	–	–	–	–	cleaved	42
